The record followed here is US20100010058A1, “Azoline Compounds for Combating Arthropod Pests” (BASF SE, priority 2006, published 2010).

Structures are written as SMILES.

For orientation: mortality means the percentage killed. Low readings indicate more survivors, high ones fewer survivors.

Format in all cases: in vivo
Assay [1] deals with Vetch Aphid (Megoura viciae). In words: Activity against Vetch Aphid (Megoura viciae), bean leaf disk microtiterplate test. The following applies: foliar, 144 h, bean leaf disks sprayed, adult aphids, 6 days, compared to 0% mortality of untreated controls. The method, then:
2.1 Activity against Vetch Aphid (Megoura viciae)
The active compounds were formulated in DMSO/water (1:3). Bean leaf disks were placed into microtiterplates filled with 0.8% agar-agar and 2.5 ppm OPUS™. The leaf disks were sprayed with 2.5 μl of the test solution and 5 to 8 adult aphids were placed into the microtiterplates which were then closed and kept at 22-24° C. and 35-45% under fluorescent light for 6 days. Mortality was assessed on the basis of vital, reproduced aphids. Tests were replicated 2 times.

Assay [2] deals with Green Peach Aphid (Myzus persicae). The experiment in a line: Activity against Green Peach Aphid (Myzus persicae), pepper plant leaf dip test. The following applies: foliar, 120 h, pepper plant leaves dipped, after 5 days, in comparison with untreated controls. Here is the method: 2.3. Activity against Green Peach Aphid (Myzus persicae)
Pepper plants in the 2nd leaf-pair stage (variety ‘California Wonder’) are infested with approximately 40 laboratory-reared aphids by placing infested leaf sections on top of the test plants. The leaf sections are removed after 24 hours. The leaves of the intact plants are dipped into gradient solutions of the test compound. Aphid mortality on the treated plants, relative to mortality on check plants, is determined after 5 days.

Assay [3] deals with Cotton Aphid (Aphis gossypii). The experiment in a line: Activity against Cotton Aphid (Aphis gossypii), cotton cotyledon dip test. The note with it: 120 h, cotton cotyledons dipped, mortality counts after 5 days. The source says:
2.2 Activity against Cotton Aphid (Aphis gossypii)
The active compounds were formulated in acetone/water (1:1) and 100 ppm Kinetic™ surfactant. Cotton plants at the cotyledon stage (one plant per pot) were infested by placing a heavily infested leaf from the main colony on top of each cotyledon. The aphids were allowed to transfer to the host plant overnight, and the leaf used to transfer the aphids was removed. The cotyledons were dipped in the test solution and allowed to dry. After 5 days, mortality counts were made.

Assay [4] deals with Brown Planthopper (nilaparvata lugens). The experiment in a line: Activity against Brown Planthopper (nilaparvata lugens), sprayed rice plants. The following applies: assessed 24, 48 and 72 hours after treatment, in comparison with untreated controls. Here is the method:
2.4 Activity against Brown Planthopper (nilaparvata lugens)
The active compounds were formulated as a 20:80 acetone:water solution. Surfactant (Alkamuls EL 620) was added at the rate of 0.1% (vol/vol).
Potted rice plants of 3-4 weeks of age are sprayed with 10 ml of the test solution using air driven hand atomizer (Devillbis atomizer) at 1.7 bar. The treated plants are allowed to dry for about 1 hour and covered with Mylar cages. The plants are inoculated with 10 adults of the specie (5 male and 5 females) and kept at 25-27° C. and 50-60% humidity for 3 days. Mortality is assed after 24, 48 and 72 hours after treatment. Dead insects are usually found in the water surface. Each treatment is replicated once.

`Cc1cccc(CN(NC2=NCCS2)c2cccc(Cl)c2Cl)c1` [Example 7, N-(2,3-Dichloro-phenyl)-N′-(4,5-dihydro-thiazol-2-yl)-N-(3-methyl-benzyl)-hydrazine] displayed a mortality at 2500 ppm in assay [1] above 75%. Besides, the mortality at 300 ppm in assay [2] was above 50%; in assay [3], above 50%; in assay [4] it was at least 50%.
`CC(C)=CCN(NC1=NCCS1)c1cccc(C)c1C` [Example 30, N′-(4,5-Dihydro-thiazol-2-yl)-N-(2,3-dimethyl-phenyl)-N-(3-methyl-but-2-enyl)-hydrazine] came in with a mortality at 2500 ppm in assay [1] above 75%.
